Entries after “also recorded” stand apart in the source; their conditions may differ.
Tested on: Recurrent Respiratory Papillomatosis due to Human Papillomavirus subtype 6 (HPV-6)
Assay: Case report: systemic, topical and nebulized cidofovir in a young child with recurrent respiratory papillomatosis
Type: in vivo
Description: We decided that applying cidofovir using a flexible bronchoscope and a cytology brush soaked in cidofovir would be a reasonable method to attempt to deliver the drug to the papillomas. We used the intravenous form of the drug, diluted to the concentration used in the gel based formula.
Therefore, we made a 4 ml solution at the same concentration we were using for the topical application.
Therefore, we elected to nebulize the drug (Cidofovir 10 mg/ml in NS, 4 cc, 3 times/week).
Background: a person is an ex-prem (24 week GA) born to a mom who had antenatal bleeding and had been given steroids prior to delivery. Their postnatal course was complicated by Respiratory distress syndrome (mechanical ventilation for 52 days, CPAP for 28 days and O2 for 30 days), a patent ductus arteriousus (indomethacin & surgical ligation), hemodynamic instability necessitating inotropic support and renal failure. Following discharge home a person had severe GERD, (L) inguinal hernia repair and was described to have colic.
Presentation: At 10½ months of age, they presented to the Children's Hospital Emergency Room with increasing difficulties breathing. […] They were admitted to hospital and subsequently transferred to the Pediatric intensive care unit. They were diagnosed with upper airway obstruction and treated with Heliox (80:20) and nebulized racemic epinephrine. […] They underwent tracheostomy.
Initial management: Suspension laryngoscopy with CO2 laser for debulking papillomas was performed ×6 (locally) and ×2 (larger tertiary centre) (FIG. 1b). […] Palliation was discussed with the […].
Adjuvant therapy: Medical management was initiated 6 months into treatment.
Topical and nebulized cidofovir: The patient was started on topically applied cidofovir via flexible bronchoscopy q2 weeks in addition to continuing the intravenous (systemic) dose. A cytology brush was soaked in cidofovir 10 mg/ml solution and advanced via the bronchoscope to the lower airway papillomas (FIG. 2a). We elected to start nebulized cidofovir to reduce the frequency of Bronchoscopic procedures and to intensify treatment. […] After 6 months of nebulized cidofovir, the dose was reduced to 2× weekly.
Current status: A large papilloma was surgically debulked (microdebridment) and topical cidofovir was topically applied to the base of the lesion. […] undergoes surveillance bronchoscopy q3 months and continues on nebulized cidofovir 5 mg/ml, 4 cc 2× weekly (FIGS. 2c and 3b).

Nc1ccn(C[C@@H](CO)OCP(=O)(O)O)c(=O)n1 [cidofovir]
current disease status (after nebulized cidofovir, surgical debulking of a large papilloma and topical cidofovir to its base): papilloma free; also recorded: Her disease has remitted | effect on papillomatosis (intravenous (systemic) cidofovir 4.1 mg/kg/dose every 4 weeks): without effect | effect in the lung (CT scans) (nebulized cidofovir): improvement in the lung | complications / side effects (nebulized cidofovir 10 mg/ml, 4 ml (total dose 40 mg), 3× weekly): bleeding (dose dependent & related to infection with bacteria; also recorded: cough | complications / side effects (nebulized cidofovir 10 mg/ml, 4 ml (total dose 40 mg), 3× weekly, listed as Cidofovir): hemoptysis; also recorded: bleeding and protracted airways inflammation | complications / side effects (nebulized cidofovir after the dose was reduced (5 mg/ml; later 2 times/week)): resolution of the complications | complications / side effects (nebulized cidofovir after the dose was reduced (5 mg/ml; later 2 times/week), listed as Cidofovir): without complications | effect on lower airway papillomas (nebulized cidofovir in saline, 4 ml, 2-3 times/week): worked well; also recorded: reduction of the burden of the papillomas | effect on lower airway papillomas (nebulized cidofovir in saline, 4 ml, 2-3 times/week, listed as Cidofovir): lower airway lesions have visually disappeared | papillomas in the main airway (trachea) (nebulized cidofovir, droplet size 2-4 microns): remained large | course of disease (systemic cidofovir q2 weeks plus Interferon α2b 5 MU/m^2 3× weekly, listed as Cidofovir): did not halt the progression of the disease | course of lesions (systemic cidofovir stepped down to q3 weeks (with Interferon α2b)): the lesions worsened | effect on lower airway papillomas (topical cidofovir (10 mg/ml, thickened with sterile glycerine) applied by cytology brush via flexible bronchoscopy every 2 weeks): worked to reduce the size of the papillomas | effect on lower airway papillomas (topical cidofovir (10 mg/ml, thickened with sterile glycerine) applied by cytology brush via flexible bronchoscopy every 2 weeks, listed as Cidofovir): The lesions regressed

Source: patent US20090023685A1, “Nebulized or Sprayed Cidofovir for Recurrent Respiratory Papillomatosis” (priority 2007, published 2009)
